Measurements taken from patent US10577428B2, “Anti-factor XI monoclonal antibodies and methods of use thereof” (Oregon Health & Science University, priority 2007, dated 2020).

Key:
baboons (Papio anubis) = assay: Vascular graft occlusion studies, collagen coated 2 mm i.d. grafts, high arterial shear; type: in vivo, baboon (Papio anubis)
Method: Thrombus formation was initiated within the baboon AV shunt by interposing a thrombogenic segment of prosthetic vascular graft (ePTFE, WL Gore & Co., Flagstaff, Ariz.), as previously described (Hanson et al. (1993) J. Clin. Invest. 92:2003-2012). To consistently trigger platelet-dependent thrombus formation, the clinical graft segments were coated with immobilized collagen. Twenty mm long grafts having internal diameters (i.d.) of either 2 or 4 mm were filled with equine type I collagen (1 mg/ml; Nycomed Arzenmittel, Munich, Germany) for 15 min, and then dried overnight under sterile airflow. This method produced a uniform collagen coating within the graft lumen as determined by scanning electron microscopy (FIGS. 1B and 1C). The thrombogenic collagen-coated grafts were then incorporated between segments of silicon rubber tubing, and deployed into the AV shunts (FIG. 1A). The grafts were exposed to blood for up to 60 min. During each experiment, the blood flow rate through the graft was restricted to 100 ml/min by clamping the proximal silicone rubber shunt segment, thereby producing a mean wall shear rate (MWSR) in the 4 mm grafts of 265 s^−1, while in the 2 mm grafts the initial MWSR was 2120 s^−1. Flow rates were continuously monitored using an ultrasonic flow meter (Transonics Systems, Ithaca, N.Y.). […] Baseline blood flow was restored through the permanent shunt after each experiment. In the 2 mm diameter grafts blood flow rates progressively declined due to thrombus formation. The grafts were removed from the AV shunts when the flow rate fell from 100 ml/min to below 20 ml/min, signaling imminent occlusion. The time from initiation of blood flow to graft removal (<20 ml/min blood flow) was taken as the occlusion time.
Occlusion studies were performed using 10 mm long 2 mm i.d. collagen coated devices which produced high arterial shear rates (2120 s^−1 at 100 ml/min clamped blood flow). Accumulation of labeled platelets onto 2 mm thrombogenic grafts were measured in 3-min intervals using a gamma scintillation camera. Flow was maintained at 100 ml/min by proximal clamping for as long as possible, and then allowed to decrease as the propagating thrombus began to occlude the device. A final blood flow rate of 20 ml/min was used as a cutoff for occlusion, since a fully occlusive thrombi and lack of blood flow through the device could lead to occlusion of the shunt and a significant loss of blood for the animals.
Since aspirin is a less antihemostatic agent than heparin, and it is often included in the standard treatment of arterial-type platelet-dependent thrombosis, ASA was used in the current studies with the occlusion-prone 2 mm i.d. grafts as a long-acting positive control. ASA (32 mg/kg) was administered orally 2-4 h before each thrombosis experiment, as described previously (Hanson et al. (1985) J. Clin. Invest. 75:1591-1599). Four weeks were allowed for washout of each aXIMab and ASA before performing new experiments in the same animal.

baboons [1] = assay: Standard template skin bleeding time test (Surgicutt); type: in vivo, baboon
Method: The effects of FXI inhibition and aspirin on primary hemostasis in baboons were assessed using the standard template skin bleeding time test (Surgicutt®, International Technidyne Corp). […] All bleeding time measurements were performed by the same expert technician. For indirect assessment of hemostasis, aPTT and PT measurements were also performed.

baboons [2] = assay: Observation for adverse reactions and bleeding events; type: in vivo, baboon; details: one week follow-up periods of observation
baboons [3] = assay: Effect of locally infused PPACK during local sampling; type: in vivo, baboon; details: PPACK 0.5 mg/ml infused locally at 20 μl/min
Method: A novel local sampling method was used to assess the local production of thrombogenic mediators by sampling blood that superfused propagating experimental thrombi. […] All blood samples were collected into 1/10th volume 3.8% citrate anticoagulant. Systemic samples (1 ml each) were collected before initiation of thrombosis as well as 30 and 60 min into each study. A total of 6 local blood samples were drawn from the peripheral blood IBL at a rate of 100 μl/min over 10 min intervals out of a 0.64 mm port which was located 10 mm distal to the growing thrombus (FIG. 1A). […] Infusion and sampling were regulated by syringe pumps (Harvard Apparatus). Local sampling was performed only with the 4 mm i.d. devices in this study.

effect on bleeding time / hemostasis (baboons [1]; FIG. 6, compared with no treatment controls) | standard template bleeding time (baboons [1]; vehicle-treated controls 3.4±0.2 min) [min] | SMILES | platelet deposition (baboons (Papio anubis); 2 mm i.d. grafts) | Number occluded (baboons (Papio anubis); 2 mm i.d. grafts, 60 min) | Embolic events per experiment (baboons (Papio anubis); 2 mm i.d. grafts, mean ± SEM) | Fibrin deposition (baboons (Papio anubis); 2 mm i.d. grafts, mean ± SEM, control 0.30 ± 0.04) [mg] | grafts remained patent (baboons (Papio anubis); 2 mm i.d. grafts, over 60 min) | time to graft occlusion prolonged by (average) (baboons (Papio anubis); in 4 grafts, ASA 32 mg/kg orally) [min] | adverse bleeding events (baboons [2]) | systemic prothrombin times (PT) or activated partial thromboplastin times (aPTT) (baboons [3])
prolonged the bleeding time | 6.4 ± 0.7 | CC(=O)Oc1ccccc1C(=O)O [ASA, acetylsalicylic acid, reference compound] | reduced platelet deposition | 4/6 | 1.5 ± 0.6 | 0.23 ± 0.04 | 2 | 18 | No re-bleeding phenomena, petechiae, hematomas or other adverse bleeding events | 
 |  | NC(N)=NCCC[C@H](NC(=O)[C@@H]1CCCN1C(=O)[C@H](N)Cc1ccccc1)C(=O)CCl [PPACK, Phe-Pro-Arg-chloromethylketone] |  |  |  |  |  |  |  | did not affect
